Results: US10111847B2, “Compounds and methods for modulating vascular injury” (The Regents of the University of California, priority 2012, dated 2018)

Tests used:
Assay type in all cases: cell-based, human
TNF-α-stimulated VSMC = experiment: Static monocyte (U937) adhesion assay, TNF-α-stimulated VSMC (RvD); details: U937 monocytes; TNF-α 10 ng/ml 4 hours; peak inhibition at 10 nM
Text: (§1) Primary cultures of human greater saphenous vein smooth muscle cells (hVSMC) are isolated from saphenous vein discarded at the time of bypass operation in an Institutional Review Board-approved protocol as described by Conte et al. “Regulation of vein graft hyperplasia by survivin, an inhibitor of apoptosis protein.” Arterioscler Thromb Vasc Biol. 2005; 25:2081-2087. VSMCs are maintained in Dulbecco's modified Eagle's medium (DMEM Low Glucose) (HyClone Laboratories Inc, Logan, Utah) containing 10% fetal bovine serum (FBS) (Invitrogen Life Technologies, Grand Island, N.Y.) and used between passages 2-5. Endothelial cells were maintained in Medium 199 supplemented with EBSS (Hyclone Laboratories, Logan, Utah, USA) and Endothelial Cell Growth Supplement. Cells between passages 3-8 were used for the experiments.
RvD. […] Fluorescence measurements (excitation 494 nm, emission 517 nm) of bound monocytes are made with plate reader (Spectra Max M2, Molecular Devices, LLC, Sunnyvale, Calif.).
(§2) FIG. 1: RvD1 and RvD2 attenuate cell adhesion, proliferation, and migration responses of human VSMC in-vitro. […] Results are shown as relative percent inhibition, expressed as a percentage of the maximal adhesion for the agonist (n=6, results are mean±SEM, **P<0.01, *P<0.05, unpaired t-test). […] Results are expressed as percentage change in migration from unstimulated control (no PDGF). […]

VSMC [1] = experiment: VSMC proliferation assay (Alamar Blue) in 10% serum; details: 100 nM; standard growth medium (10% serum); P<0.01
Text: Primary cultures of human greater saphenous vein smooth muscle cells (hVSMC) are isolated from saphenous vein discarded at the time of bypass operation in an Institutional Review Board-approved protocol as described by Conte et al. “Regulation of vein graft hyperplasia by survivin, an inhibitor of apoptosis protein.” Arterioscler Thromb Vasc Biol. 2005; 25:2081-2087. VSMCs are maintained in Dulbecco's modified Eagle's medium (DMEM Low Glucose) (HyClone Laboratories Inc, Logan, Utah) containing 10% fetal bovine serum (FBS) (Invitrogen Life Technologies, Grand Island, N.Y.) and used between passages 2-5. […]
Cell proliferation assay is performed as described by Conte et al. Arterioscler Thromb Vasc Biol. 2005; 25:2081-2087. […] Fluorescence measurements (excitation 506 nm, emission 590 nm) are made on media aliquots; a standard curve is generated by correlating emission intensity with viable cell counts using Trypan Blue exclusion.
as §2

VSMC [2] = experiment: Transwell migration of VSMC to PDGF-AB; details: 100 nM; chemotaxis to PDGF-AB 50 ng/mL, 8 hours; P<0.01
Text: as §1
RvD. […]
as §2

VCAM-1 = experiment: TNF-α-stimulated VCAM-1 gene expression in VSMC by qRT-PCR; details: 100 nM; TNF-α 10 ng/ml 18 hours; P<0.01
Experimental: (§3) Cells are plated onto 6-well plates at 100% confluency in DMEM plus 10% FBS and allowed to attached overnight. Cells are then made quiescent by placing in serum-free media for 48-72 hours prior to start of experiments. Cells are treated with or without RvD1 or RvD2 at the indicated concentrations for one hour followed by co-incubation with cytokine (TNF-α 10 ng/ml) for up to 18 hours. In a separate set of experiments to examine the role of G-protein receptors, VSMCs are exposed to TNF-α and RvD2 (10 nM) as described above, in the presence or absence of pertussis toxin (PTX 100 ng/ml). Total RNA from rabbit sample or cells is isolated with PureLink RNA Mini kit (Ambion Life Technologies, Carlsbad, Calif.) with RNase-free DNase treatment according to manufacturer's protocol. One microgram of total RNA (from either VSMC or rabbit tissue) is used to generate cDNA using High Capacity cDNA Reverse Transcription Kit (Applied Biosystems, Foster City, Calif.) for subsequent RT-PCR reactions. Sybrgreen Amplified DNA is detected by incorporation SYBR Green (Qiagen, Germantown, Md.). Dissociation curve analyses are performed to confirm the specificity of the SYBR Green signal. Data is normalized to at least two reference genes. […]
(§4) FIG. 2: RvD1 and RvD2 reduce pro-inflammatory gene expression in VSMC. […] Expression of the cell adhesion molecules VCAM-1 (A) and ICAM-1 (B) was measured by qRT-PCR. […]

ICAM-1 = experiment: TNF-α-stimulated ICAM-1 gene expression in VSMC by qRT-PCR; details: 100 nM; TNF-α 10 ng/ml 18 hours; P<0.01
Experimental: as §3, §4

| Compound | maximum % inhibition of monocyte adhesion (TNF-α-stimulated VSMC) | inhibition of VSMC proliferation, maximum effect (VSMC [1]) | Maximum % reduction in the cell migration assay (VSMC [2]) | VCAM-1 expression, maximum % reduction (VCAM-1) | ICAM-1 expression, maximum % reduction (ICAM-1) |
| --- | --- | --- | --- | --- | --- |
| CC/C=C\C[C@H](O)/C=C/C=C\C=C\C=C\[C@@H](O)[C@@H](O)C/C=C\CCC(=O)O [RvD1, Resolvin D1] | 36% | 59% | 63% | 69% | 63% |
| CC/C=C\C[C@H](O)[C@H](O)/C=C/C=C/C=C\C=C\[C@@H](O)C/C=C\CCC(=O)O [RvD2, resolvin D2] | 41% | 63% | 69% | 76% | 70% |
